# Reference: patent publication US20170291890A1 (Epizyme, Inc., priority 2014, published 2017)
# Target: T1, KDM5A (Homo sapiens, UniProt P29375)
# T1 construct: C-terminal FLAG-tagged KDM5A^1-1090 was purchased from BPS Biosciences; FLAG (C); purchased BPS Biosciences
# T1 sequence (P29375 1-1090): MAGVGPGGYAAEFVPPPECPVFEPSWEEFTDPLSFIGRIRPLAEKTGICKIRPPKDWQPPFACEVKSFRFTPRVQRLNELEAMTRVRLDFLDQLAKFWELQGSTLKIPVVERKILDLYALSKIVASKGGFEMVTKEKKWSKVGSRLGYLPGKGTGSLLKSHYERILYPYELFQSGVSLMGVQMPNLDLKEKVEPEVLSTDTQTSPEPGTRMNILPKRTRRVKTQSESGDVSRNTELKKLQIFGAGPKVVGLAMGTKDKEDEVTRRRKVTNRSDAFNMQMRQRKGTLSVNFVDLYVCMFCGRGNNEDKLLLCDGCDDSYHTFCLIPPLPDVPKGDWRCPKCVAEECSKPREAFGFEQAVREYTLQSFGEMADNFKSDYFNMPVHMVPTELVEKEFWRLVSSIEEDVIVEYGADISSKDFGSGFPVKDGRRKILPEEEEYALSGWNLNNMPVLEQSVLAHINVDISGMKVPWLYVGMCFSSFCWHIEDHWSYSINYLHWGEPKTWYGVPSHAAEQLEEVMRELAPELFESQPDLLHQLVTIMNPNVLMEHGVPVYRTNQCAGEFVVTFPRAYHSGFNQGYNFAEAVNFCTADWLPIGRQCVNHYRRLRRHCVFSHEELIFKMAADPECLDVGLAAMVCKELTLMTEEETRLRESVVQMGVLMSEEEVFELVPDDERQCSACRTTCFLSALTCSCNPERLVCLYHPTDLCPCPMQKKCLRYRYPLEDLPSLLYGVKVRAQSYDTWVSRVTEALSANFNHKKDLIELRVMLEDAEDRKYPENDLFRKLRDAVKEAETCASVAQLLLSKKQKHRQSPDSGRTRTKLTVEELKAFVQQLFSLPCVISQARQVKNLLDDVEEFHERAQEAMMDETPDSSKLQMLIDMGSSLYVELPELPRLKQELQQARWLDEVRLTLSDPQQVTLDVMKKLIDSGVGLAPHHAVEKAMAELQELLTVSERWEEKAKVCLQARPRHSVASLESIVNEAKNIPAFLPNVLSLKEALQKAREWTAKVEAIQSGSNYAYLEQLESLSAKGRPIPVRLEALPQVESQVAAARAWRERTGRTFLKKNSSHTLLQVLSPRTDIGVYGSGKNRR
# Assay: KDM5A Assay (SAMDI mass spectrometry demethylase assay)
# Assay type: biochemical
# Settings: C-terminal FLAG-tagged KDM5A 1-1090; class symbols; read-out: 5A IC50
# Summary of the method: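 FLAG-tagged KDM5A 1-1090 (20 nM) preincubated 30 min with compound in pH 8.0 HEPES buffer with ascorbate, Fe(II), TCEP, then reacted 150 min at 25 °C with H3K4me3 peptide (250 nM) and 2-oxoglutarate (15 μM). Formic acid-quenched; SAMDI-MS substrate/product AUC conversion; IC50 from dose-response.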
row,IC50 [µM],SMILES
1,1 to 10,"O=C(O)c1ccncc1Nc1cnn(CCN2CCC(F)(F)CC2)c1-c1ccccc1 [Compound 18, 3-((1-(2-(4,4-difluoropiperidin-1-yl)ethyl)-5-phenyl-1H-pyrazol-4-yl)amino)isonicotinic acid]"
2,0.001 to 0.1,"Cc1cn(-c2ccccc2)nc1Nc1cnccc1C(=O)O [Compound 62, 3-((4-methyl-1-phenyl-1H-pyrazol-3-yl)amino) isonicotinic acid]"
3,0.1 to 1,"O=C(O)c1ccncc1Nc1nn(C2CCOCC2)cc1-c1ccccc1 [Compound 72, 3-((4-phenyl-1-(tetrahydro-2H-pyran-4-yl)-1H-pyrazol-3-yl)amino)isonicotinic acid]"
4,1 to 10,"Cc1c(Nc2cnccc2C(=O)O)cnn1C1CCN(C(=O)c2ccccc2)CC1 [Compound 98, 3-(1-(1-benzoylpiperidin-4-yl)-5-methyl-1H-pyrazol-4-ylamino) isonicotinic acid]"
5,0.1 to 1,"Cn1ncc(-c2ccccc2F)c1Nc1cnccc1C(=O)O [Compound 12, 3-((4-(2-fluorophenyl)-1-methyl-1H-pyrazol-5-yl)amino) isonicotinic acid]"
6,1 to 10,"Cn1cc(-c2ccccc2F)c(Nc2cnccc2C(=O)O)n1 [Compound 11, 3-((4-(2-Fluorophenyl)-1-methyl-1H-pyrazol-3-yl)amino) isonicotinic acid]"
7,1 to 10,Cn1ncc(-c2ccccc2)c1Nc1cnccc1C(=O)O [Compound 1]
8,0.1 to 1,"CC(C)n1nc(-c2ccccc2)cc1Nc1cnccc1C(=O)O [Compound 22, 3-((1-Isopropyl-3-phenyl-1H-pyrazol-5-yl)amino)isonicotinic acid]"
9,1 to 10,"O=C(O)c1ccncc1Nc1cc(-c2ccccc2)nn1-c1ccncc1 [Compound 56, 3-((3-phenyl-1-(pyridin-4-yl)-1H-pyrazol-5-yl)amino) isonicotinic acid]"
10,1 to 10,"Cc1c(-c2ccccc2)nn(C)c1Nc1cnccc1C(=O)O [Compound 53, 3-((1,4-dimethyl-3-phenyl-1H-pyrazol-5-yl)amino)isonicotinic acid]"
11,1 to 10,"Cn1cc(Nc2cnccc2C(=O)O)c(-c2ccccc2)n1 [Compound 13, 3-((1-methyl-3-phenyl-1H-pyrazol-4-yl)amino) isonicotinic acid]"
12,1 to 10,"Cc1cc(Nc2cnccc2C(=O)O)nn1-c1ccccc1 [Compound 60, 3-((5-methyl-1-phenyl-1H-pyrazol-3-yl)amino)isonicotinic acid]"
13,0.001 to 0.1,"CCn1nc(-c2ccccc2)cc1Nc1cnccc1C(=O)O [Compound 36, 3-((1-Ethyl-3-phenyl-1H-pyrazol-5-yl)amino)isonicotinic acid]"
14,0.1 to 1,"COCCn1nc(-c2ccccc2)cc1Nc1cnccc1C(=O)O [Compound 27, 3-((1-(2-Methoxyethyl)-3-phenyl-1H-pyrazol-5-yl)amino) isonicotinic acid]"
15,0.001 to 0.1,"CN(C)CCn1cc(-c2ccccc2)c(Nc2cnccc2C(=O)O)n1 [Compound 64, 3-((1-(2-(dimethylamino)ethyl)-4-phenyl-1H-pyrazol-3-yl)amino)isonicotinic acid]"
16,1 to 10,NCCn1nc(-c2ccccc2)cc1Nc1cnccc1C(=O)O [Compound 26]
17,0.001 to 0.1,"Cn1nc(-c2cccc(Cl)c2)cc1Nc1cnccc1C(=O)O [Compound 25, 3-((3-(3-chlorophenyl)-1-methyl-1H-pyrazol-5-yl)amino) isonicotinic acid]"

row,IC50 [µM],SMILES
1,10 to 100,"Cn1ncc(-c2cccc(F)c2)c1Nc1cnccc1C(=O)O [Compound 10, 3-((4-(3-Fluorophenyl)-1-methyl-1H-pyrazol-5-yl)amino) isonicotinic acid]"
2,10 to 100,"Cc1nn(-c2ccccc2)c(C)c1Nc1cnccc1C(=O)O [Compound 77, 3-((3,5-dimethyl-1-phenyl-1H-pyrazol-4-yl)amino)isonicotinic acid]"
3,10 to 100,"Cc1c(-c2ccccc2)nn(CCN2CCC(F)(F)CC2)c1Nc1cnccc1C(=O)O [Compound 66, 3-((1-(2-(4,4-difluoropiperidin-1-yl)ethyl)-4-methyl-3-phenyl-1H-pyrazol-5-yl)amino)isonicotinic acid]"
4,0.1 to 1,"Cn1cc(-c2ccc(F)cc2)c(Nc2cnccc2C(=O)O)n1 [Compound 7, 3-((4-(4-Fluorophenyl)-1-methyl-1H-pyrazol-3-yl)amino) isonicotinic acid]"
5,1 to 10,"Cc1c(Nc2cnccc2C(=O)O)cnn1[C@H]1CC[C@@H](N)CC1 [Compound 79, 3-((1-((cis)-4-aminocyclohexyl)-5-methyl-1H-pyrazol-4-yl)amino)isonicotinic acid]"
6,10 to 100,"COC(=O)c1ccncc1Nc1cnn(C2CCN(C(C)C)CC2)c1C [Compound 103, methyl 3-((1-(1-isopropylpiperidin-4-yl)-5-methyl-1H-pyrazol-4-yl)amino)isonicotinate]"
7,1 to 10,"CNC(=O)c1cccc(-n2ncc(Nc3cnccc3C(=O)O)c2C)c1 [Compound 59, 3-((5-methyl-1-(3-(methylcarbamoyl)phenyl)-1H-pyrazol-4-yl)amino) isonicotinic acid]"
8,0.001 to 0.1,"CN1CCN(CCn2ncc(-c3ccccc3)c2Nc2cnccc2C(=O)O)CC1 [Compound 35, 3-((1-(2-(4-methylpiperazin-1-yl)ethyl)-4-phenyl-1H-pyrazol-5-yl)amino)isonicotinic acid]"
9,1 to 10,"Cc1n[nH]c(-c2ccccc2)c1Nc1cnccc1C(=O)O [Compound 55, 3-((5-methyl-3-phenyl-1H-pyrazol-4-yl)amino)isonicotinic acid]"
10,1 to 10,"O=C(O)c1ccncc1Nc1c(-c2ccccc2)cnn1CCN1CCC(F)(F)CC1 [Compound 15, 3-((1-(2-(4,4-difluoropiperidin-1-yl)ethyl)-4-phenyl-1H-pyrazol-5-yl)amino)isonicotinic acid]"
11,10 to 100,"O=C(O)c1ccncc1Nc1c(-c2ccccc2)cnn1-c1ccccc1 [Compound 43, 3-((1,4-Diphenyl-1H-pyrazol-5-yl)amino)isonicotinic acid]"
12,10 to 100,"COC(=O)c1ccncc1Nc1cn(C2CCN(C(C)C)CC2)nc1C [Compound 101, methyl 3-((1-(1-isopropylpiperidin-4-yl)-3-methyl-1H-pyrazol-4-yl)amino)isonicotinate]"
13,0.1 to 1,"Cc1nn(C2CCN(C(=O)c3ccccc3)CC2)cc1Nc1cnccc1C(=O)O [Compound 97, 3-(1-(1-benzoylpiperidin-4-yl)-3-methyl-1H-pyrazol-4-ylamino) isonicotinic acid]"
14,1 to 10,Cc1c(Nc2cnccc2C(=O)O)cnn1C1CCN(C(C)C)CC1 [Compound 104]
15,0.001 to 0.1,"O=C(O)c1ccncc1Nc1nn(CCN2CCC(F)(F)CC2)cc1-c1ccc(F)cc1 [Compound 45, 3-((1-(2-(4,4-difluoropiperidin-1-yl)ethyl)-4-(4-fluorophenyl)-1H-pyrazol-3-yl)amino)isonicotinic acid]"
16,0.1 to 1,"Cc1nn(CCN(C)C)cc1Nc1cnccc1C(=O)O [Compound 107, 3-(1-(2-(dimethylamino)ethyl)-3-methyl-1H-pyrazol-4-ylamino) isonicotinic acid]"
17,0.001 to 0.1,"COc1ccccc1-n1cc(C)c(Nc2cnccc2C(=O)O)n1 [Compound 63, 3-((1-(2-methoxyphenyl)-4-methyl-1H-pyrazol-3-yl)amino) isonicotinic acid]"
